The record followed here is US20240208997A1, “CYCLIC BENZIMIDAZOLE DERIVATIVES AS CGAS INHIBITORS” (Boehringer Ingelheim International GmbH, priority 2022, published 2024).

For this assay, the target named is cGAS (Homo sapiens, UniProt Q8N884). The experiment in a line: Human cGAS enzyme assay (hcGAS IC50, in vitro), cGAMP formation by RapidFire MS. The format is biochemical. Also on record: HumancGAS (amino acid 1-522) with an N-terminal 6×-His-tag and SUMO-tag; 6xHis (N); SUMO (N); made in house; host or cells: E. coli BL21(DE3) pLysS. The conditions noted are these: Table 1; 45 bp dsDNA-activated enzyme. Here is the method: 6.1 Method: Human cGAS Enzyme Assay (hcGAS IC50 (In Vitro))
cGAS, sequence (Q8N884 whole entry): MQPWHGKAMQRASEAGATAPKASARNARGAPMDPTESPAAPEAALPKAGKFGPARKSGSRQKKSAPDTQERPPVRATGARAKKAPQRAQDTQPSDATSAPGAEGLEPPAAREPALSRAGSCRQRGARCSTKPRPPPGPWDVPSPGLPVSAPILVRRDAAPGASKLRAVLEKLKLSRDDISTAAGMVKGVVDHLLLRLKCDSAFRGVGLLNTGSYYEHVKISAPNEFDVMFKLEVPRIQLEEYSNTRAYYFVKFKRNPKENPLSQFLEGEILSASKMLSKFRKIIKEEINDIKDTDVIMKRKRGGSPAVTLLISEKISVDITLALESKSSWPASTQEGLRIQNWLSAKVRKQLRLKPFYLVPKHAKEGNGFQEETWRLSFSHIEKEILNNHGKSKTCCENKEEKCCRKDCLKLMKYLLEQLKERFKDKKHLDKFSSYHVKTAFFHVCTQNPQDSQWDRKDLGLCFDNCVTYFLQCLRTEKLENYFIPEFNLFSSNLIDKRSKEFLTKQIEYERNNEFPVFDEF
Human cGAS enzyme was incubated in the presence of a 45 base pair double stranded DNA to activate the enzyme and GTP and ATP as substrates. Compound activity was determined by measuring the effect of compounds on the formation of the product of the enzyme reaction, cGAMP, which is measured by a mass spectrometry method.
HumancGAS (amino acid 1-522) with an N-terminal 6×-His-tag and SUMO-tag was expressed in E. coli BL21(DE3) pLysS (Novagen) cells for 16 h at 18° C. Cells were lysed in buffer containing 25 mM Tris (pH 8), 300 mM NaCl, 10 mM imidazole, 10% glycerol, protease inhibitor cocktail (cOmplete™, EDTA-free, Roche) and DNase (5 μg/mL). […] Purified protein was concentrated to 1.7 mg/mL and stored at −80° C.
Compounds were delivered in 10 mM DMSO solution, serially diluted and transferred to the 384 well assay plate (Greiner #781201) using an Echo acoustic dispenser. Typically, 8 concentrations were used with the highest concentration at 10 μM in the final assay volume followed by ^˜1:5 dilution steps. DMSO concentration was set to 1% in the final assay volume. The 384 well assay plate contained 22 test compounds (column 1-22), and DMSO in column 23 and 24.
After the compound transfer, 15 μL of the enzyme-DNA-working solution (12 nM cGAS, 0.32 μM 45base pair DNA in assay buffer, 10 mM Tris pH 7.5/10 mM KCl/5 mM MgCl2/1 mM DTT) were added to each well from column 1-23 via a MultiDrop Combi dispenser. In column 24, 15 μl of assay buffer without enzyme/DNA were added as a low control.
The plates were then pre-incubated for 60 min at room temperature.
Following that, 10 μL of GTP (ThermoFisher #R0461)-ATP (Promega #V915B) mix in assay buffer were added to the assay plate (columns 1-24, 30 μM final concentration each) using a Multidrop Combi.
The plates were incubated again for 90 min at room temperature.
Following the incubation, the reaction was stopped by 80 μL of 0,1% formic acid in assay buffer containing 5 nM cyclic-di-GMP (Sigma #SML1228) used as internal standard for the mass spectrometry. The total volume/well was 105 μL.
The plates were centrifuged at 4000 rpm, 4° C., for 5 min.
The RapidFire autosampler was coupled to a binary pump (Agilent 1290) and a Triple Quad 6500 (ABSciex, Toronto, Canada). […] Aspiration time: 250 ms; Load time: 3000 ms; Elute time: 3000 ms; Wash volume: 500 μL.
The MS was operated in positive ion mode with HESI ion source, with a source temperature of 550 C, curtain gas=35, gas 1=65, and gas 2=80. Unit mass resolution in SRM mode. The following transitions and MS parameters (DP: declustering potential and CE: collision energy) for cGAMP and DicGMP were determined:
Internal standard: cyclic-di-GMP at 690.1/540, DP=130, CE=30.
The formation of cGAMP was monitored and evaluated as ratio to cyclic-di-GMP.
Data Evaluation and Calculation:
For data evaluation and calculation, the measurement of the low control was set as 0% control and the measurement of the high control was set as 100% control. The IC50 values were calculated using the standard 4 parameter logistic regression formula. Calculation: [y=(a−d)/(1+(x/c)^b)+d], a=low value, d=high value; x=conc M; c=1C50 M; b=slope
As for `C[C@@H]1CN2CC[C@H]1n1c(nc3cc(Cl)ccc31)O[C@H]1C[C@@H](C(=O)O)N(C1)c1nc(nc3c1oc1ccccc13)CCOCCCC2=O` [Example 1.01], the 50% inhibitory concentration (IC50) (as a rule, the point on the concentration scale where inhibition reaches its midpoint) was determined as 14 nM.
For the compound `C[C@H]1CN2CC[C@@H]1n1c(nc3ccccc31)O[C@H]1C[C@@H](C(=O)O)N(C1)c1nc(nc3c1oc1cc(Cl)ccc13)C(F)(F)CCCOCC2=O` [Example 1.22], the concentration for half-maximal inhibition (IC50) came to 2.7 nM.
The compound `C[C@H]1CN2CC[C@@H]1n1c(nc3ccccc31)O[C@H]1C[C@@H](C(=O)O)N(C1)c1nc(nc3c1oc1ccccc13)CCCCCC2=O` [Example 1.19] yielded an IC50 of 3.8 nM.
`O=C(O)[C@@H]1C[C@H]2CN1c1nc(nc3c1oc1ccccc13)OCCCCOC(=O)N1CCC(CC1)n1c(nc3ccccc31)O2` [Example 11.01] gave an IC50 of 10 nM.
Next, `C[C@H]1CN2CC[C@@H]1n1c(nc3cc(F)ccc31)O[C@H]1C[C@@H](C(=O)O)N(C1)c1nc(nc3c1oc1ccccc13)C(F)(F)CCCCC(F)(F)C2=O` [Example 1.18]: 3.9 nM.
The figure for `C[C@H]1CN2CC[C@@H]1n1c(nc3ccccc31)O[C@H]1C[C@@H](C(=O)O)N(C1)c1nc(nc3c1oc1ccccc13)CCCCCN(C)C2=O` [Example 13.01] is 34 nM; for `C[C@H]1CN2CC[C@@H]1n1c(nc3ccccc31)O[C@H]1C[C@@H](C(=O)O)N(C1)c1nc(nc3c1oc1ccccc13)CCOCCCC2=O` [Example 1.05] it is 1.8 nM.
Next, `C[C@H]1CN2CC[C@@H]1n1c(nc3ccccc31)O[C@H]1C[C@@H](C(=O)O)N(C1)c1nc(nc3c1oc1ccccc13)C(F)(F)COCCCCC2=O` [Example 3.01]: 2.1 nM; `C[C@H]1CN2CC[C@@H]1n1c(nc3cc(Cl)ccc31)O[C@H]1C[C@@H](C(=O)O)N(C1)c1nc(nc3c1oc1ccccc13)COCCOCC2=O` [Example 1.11]: 1.9 nM; `O=C(O)[C@@H]1C[C@H]2CN1c1nc(nc3c1oc1ccccc13)CCCOCC(=O)N1CCC(CC1)n1c(nc3ccccc31)O2` [Example 9.01]: 7.5 nM.
With `C[C@H]1CN2CC[C@@H]1n1c(nc3ccccc31)O[C@H]1C[C@@H](C(=O)O)N(C1)c1nc(nc3c1oc1ccccc13)CCCC(C)(C)CCC2=O` [Example 1.23], the midpoint of inhibition, the IC50, lay at 41 nM.
The figure for `C[C@@H]1CC(=O)N2CCC(CC2)n2c(nc3ccccc32)O[C@H]2C[C@@H](C(=O)O)N(C2)c2nc(nc3c2oc2ccccc23)CCCO1` [Example 7.01] is 8.8 nM; for `C[C@@H]1CN2CC[C@H]1n1c(nc3ccccc31)O[C@H]1C[C@@H](C(=O)O)N(C1)c1nc(nc3c1oc1ccccc13)CCCCCOC2=O` [Example 10.01] it is 54 nM; for `C[C@H]1CN2CC[C@@H]1n1c(nc3ccccc31)O[C@H]1C[C@@H](C(=O)O)N(C1)c1nc(nc3c1oc1cc(Cl)ccc13)CCOCCCC2=O` [Example 1.07] it is 3.8 nM.
The figure for `O=C(O)[C@@H]1C[C@H]2CN1c1nc(nc3c1oc1ccccc13)COCCCC(F)(F)C(=O)N1CCC(CC1)n1c(nc3ccccc31)O2` [Example 8.01] is 5.6 nM; for `C[C@H]1CN2CC[C@@H]1n1c(nc3cc(Cl)ccc31)O[C@H]1C[C@@H](C(=O)O)N(C1)c1nc(nc3c1oc1cc(F)ccc13)CCCCOCC2=O` [Example 1.09] it is 3.9 nM.
The figure for `C[C@H]1CN2CC[C@@H]1n1c(nc3cccc(Cl)c31)O[C@H]1C[C@@H](C(=O)O)N(C1)c1nc(nc3c1oc1ccccc13)CC(=O)NCCCC2=O` (racemic) [Example 2.01, (12S,14S)-4-chloro-37-methyl-29,34-dioxo-11,18-dioxa-2,9,15,26,30,35,40-heptaazaoctacyclo[33.2.2.1^12,15.1^16,27.0^2,10.0^3,8.0^17,25.0^19,24]hentetraconta-3,5,7,9,16(40),17(25),19(24),20,22,26-decaene-14-carboxylic acid] is 6 nM; for `C[C@H]1CN2CC[C@@H]1n1c(nc3cc(Cl)ccc31)O[C@H]1C[C@@H](C(=O)O)N(C1)c1nc(nc3c1oc1ccccc13)C(F)(F)CCCCCC2=O` [Example 1.12] it is 5.2 nM.
On to `C[C@H]1CN2CC[C@@H]1n1c(nc3ccc(Cl)cc31)O[C@H]1C[C@@H](C(=O)O)N(C1)c1nc(nc3c1oc1ccccc13)COCCCCC2=O` [Example 1.10], for which the IC50 is 5 nM.
Take `C[C@H]1CN2CC[C@@H]1n1c(nc3ccccc31)O[C@H]1C[C@@H](C(=O)O)N(C1)c1nc(nc3c1oc1ccccc13)CCCCCCC2=O` (racemic) [Example 1.24]: the IC50 was determined as 18 nM.
As for `C[C@H]1CN2CC[C@@H]1n1c(nc3ccccc31)O[C@H]1C[C@@H](C(=O)O)N(C1)c1nc(nc3c1oc1ccccc13)C(F)(F)CCCCC(F)(F)C2=O` [Example 1.17], inhibition was half-maximal at 7.2 nM (IC50).
